Reference: ChEMBL document CHEMBL5154859, “Targeting the Aryl Hydrocarbon Receptor with Microbial Metabolite Mimics Alleviates Experimental Colitis in Mice” (J Med Chem, 2022)

Legend:
[1] = target: T1, AhR (aryl hydrocarbon receptor) (Homo sapiens, UniProt P35869); assay: Agonist activity at AhR (unknown origin) transfected in human AZ-AHR reporter cells derived from human HepG2 cells assessed as relative efficacy incubated for 4 hrs by luciferase reporter gene assay relative to control; format: cell-based; details: read-out: Efficacy
T1 sequence (P35869 whole entry): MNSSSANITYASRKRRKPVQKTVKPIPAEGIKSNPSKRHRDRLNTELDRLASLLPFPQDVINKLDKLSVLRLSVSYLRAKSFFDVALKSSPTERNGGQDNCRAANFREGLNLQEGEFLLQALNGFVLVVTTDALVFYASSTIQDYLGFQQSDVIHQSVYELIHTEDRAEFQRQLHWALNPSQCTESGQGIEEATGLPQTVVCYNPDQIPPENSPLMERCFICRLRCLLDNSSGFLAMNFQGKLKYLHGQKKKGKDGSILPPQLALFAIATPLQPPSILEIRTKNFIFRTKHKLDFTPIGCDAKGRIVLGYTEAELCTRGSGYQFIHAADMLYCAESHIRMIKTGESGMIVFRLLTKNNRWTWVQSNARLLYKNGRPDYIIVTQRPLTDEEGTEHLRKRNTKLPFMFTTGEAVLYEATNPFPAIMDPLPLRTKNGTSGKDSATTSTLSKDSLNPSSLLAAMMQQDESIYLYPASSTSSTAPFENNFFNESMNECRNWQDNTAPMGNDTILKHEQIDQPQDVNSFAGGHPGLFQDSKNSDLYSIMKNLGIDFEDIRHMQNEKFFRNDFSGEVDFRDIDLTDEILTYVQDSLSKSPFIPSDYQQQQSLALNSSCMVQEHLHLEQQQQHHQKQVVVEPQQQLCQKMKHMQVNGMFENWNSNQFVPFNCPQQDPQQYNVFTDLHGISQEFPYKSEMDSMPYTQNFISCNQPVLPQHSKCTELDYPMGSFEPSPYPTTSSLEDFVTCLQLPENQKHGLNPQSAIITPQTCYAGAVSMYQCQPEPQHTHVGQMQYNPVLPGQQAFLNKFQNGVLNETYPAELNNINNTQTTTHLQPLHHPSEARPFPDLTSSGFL

[2] = target: T2, Aryl hydrocarbon receptor (Mus musculus, UniProt P30561); assay: Displacement of [3H]TCDD from mouse AhR expressed in mouse Hepa1c1c7 cells cytosol incubated for 2 hrs by competitive radioligand binding assay; format: subcellular
T2 sequence (P30561 whole entry): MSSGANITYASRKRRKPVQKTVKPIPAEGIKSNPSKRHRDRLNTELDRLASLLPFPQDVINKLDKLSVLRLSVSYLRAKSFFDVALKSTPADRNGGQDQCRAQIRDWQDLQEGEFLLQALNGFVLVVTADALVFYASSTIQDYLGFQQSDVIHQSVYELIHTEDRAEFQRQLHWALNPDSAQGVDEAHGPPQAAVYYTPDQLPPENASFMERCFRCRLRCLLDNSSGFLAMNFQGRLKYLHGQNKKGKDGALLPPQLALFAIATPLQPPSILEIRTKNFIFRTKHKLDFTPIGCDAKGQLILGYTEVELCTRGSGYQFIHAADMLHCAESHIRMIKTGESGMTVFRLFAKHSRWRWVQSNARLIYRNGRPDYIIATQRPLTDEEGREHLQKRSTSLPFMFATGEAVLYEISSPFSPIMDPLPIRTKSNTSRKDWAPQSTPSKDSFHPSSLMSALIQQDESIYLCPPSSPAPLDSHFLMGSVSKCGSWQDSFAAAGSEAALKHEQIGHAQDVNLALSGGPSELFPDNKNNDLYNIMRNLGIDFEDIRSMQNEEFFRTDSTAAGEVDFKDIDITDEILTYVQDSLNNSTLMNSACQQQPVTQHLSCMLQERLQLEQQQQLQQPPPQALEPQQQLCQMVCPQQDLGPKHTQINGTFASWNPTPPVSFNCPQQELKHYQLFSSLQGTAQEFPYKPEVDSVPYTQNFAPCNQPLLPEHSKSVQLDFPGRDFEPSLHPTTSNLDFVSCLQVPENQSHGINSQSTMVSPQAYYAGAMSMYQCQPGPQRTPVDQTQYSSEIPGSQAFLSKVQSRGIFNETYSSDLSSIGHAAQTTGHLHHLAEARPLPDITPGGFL

[3] = Metabolic stability in mouse plasma assessed as half life by LC/MS analysis; format: ADME, cell-free
[4] = target: T2, Aryl hydrocarbon receptor; assay: Agonist activity at AhR in mouse Hepa2Dluc cells; format: cell-based
[5] = target: T3, Aryl hydrocarbon receptor (Homo sapiens, UniProt P35869); assay: Agonist activity at AhR in human AZ-AHR reporter cell derived from human HepG2 cells assessed as increase in luciferase activity at 1 uM measured after 8 to 24 hrs; format: cell-based; details: TDE = time-dependent effect, time 8-24 hrs
T3 sequence (P35869 whole entry): T1 sequence (P35869 whole entry)

[6] = target: T3, Aryl hydrocarbon receptor; assay: Agonist activity at AhR (unknown origin) transfected in human AZ-AHR reporter cells derived from human HepG2 cells incubated for 4 hrs by luciferase reporter gene assay; format: cell-based; details: for Activity: human, az-ahr, 4 h, DDE = dose-dependent effect
[7] = target: T3, Aryl hydrocarbon receptor; assay: Agonist activity at AhR in human LS180 cell lysates assessed as induction of AhR-ARNT heterodimerization at 1 uM incubated for 90 mins by co-immunoprecipitation assay; format: subcellular; details: ls180, 1.5 h
[8] = target: T3, Aryl hydrocarbon receptor; assay: Agonist activity at AhR in human LS180 cells assessed as induction of nuclear translocation at 1 uM incubated for 90 mins by DAPI staining based confocal fluorescence microscopic analysis; format: cell-based; details: ls180, 1.5 h
[9] = target: T3, Aryl hydrocarbon receptor; assay: Agonist activity at AhR in human LS180 cells assessed as binding of AhR to CYP1A1 promoter gene at 1 uM incubated for 90 mins by chromatin immunoprecipitation assay; format: cell-based; details: ls180, 1.5 h
[10] = target: T4, Nuclear receptor subfamily 1 group I member 2 (Homo sapiens, UniProt O75469); assay: Agonist activity at human PXR transfected in human LS180 cells cotransfected with luciferase reporter plasmid p2A4-Luc assessed as transcriptional activity incubated for 24 hrs by luciferase reporter assay; format: cell-based
T4 sequence (O75469 whole entry): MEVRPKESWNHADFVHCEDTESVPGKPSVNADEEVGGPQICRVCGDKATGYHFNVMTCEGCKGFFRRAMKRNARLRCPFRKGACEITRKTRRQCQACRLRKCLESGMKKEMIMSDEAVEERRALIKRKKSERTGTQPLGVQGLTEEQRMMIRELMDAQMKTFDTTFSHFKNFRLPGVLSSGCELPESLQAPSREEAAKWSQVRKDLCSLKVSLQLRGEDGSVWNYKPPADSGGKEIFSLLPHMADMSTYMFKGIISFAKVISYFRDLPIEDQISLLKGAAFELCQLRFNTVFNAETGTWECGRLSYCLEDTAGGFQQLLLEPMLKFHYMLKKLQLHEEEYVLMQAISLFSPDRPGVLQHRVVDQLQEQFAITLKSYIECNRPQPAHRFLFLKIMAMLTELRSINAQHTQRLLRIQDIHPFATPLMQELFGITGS

[11] = target: T4, Nuclear receptor subfamily 1 group I member 2; assay: Displacement of fluorescence labeled ligand from human PXR ligand binding domain by Lanthascreen TR-FRET assay
[12] = Stability in cell-free culture media assessed as parent compound remaining at 1 uM incubated for 12 hrs in presence of serum by LC/MS analysis; format: physicochemical; details: cell-free culture media with serum, read-out: Stability

SMILES: COC(=O)c1csc(C(=O)c2c[nH]c3ccccc23)n1
- Emax at 4 h [1]: 131%
- Ki [2]: 10 nM
- half-life [3]: 44 min
- EC50 [4]: 10 nM
- Activity [5]: Tde

SMILES: C=CCn1cc(C(=O)c2nccs2)c2ccccc21
- Emax at 4 h [1]: 63.9%
- Activity [6]: Dde

SMILES: COc1cc(Cn2cc(C(=O)c3nccs3)c3ccccc32)cc(OC)c1
- Emax at 4 h [1]: 57%
- Activity [6]: Dde

SMILES: COc1ccc(Cn2cc(C(=O)c3nccs3)c3ccccc32)cc1
- Emax at 4 h [1]: 133%
- Ki [2]: 800 nM
- Activity [7]: Active
- Activity [8]: Active
- EC50 [6]: 110 nM
- Activity [9]: Active
- Activity [5]: Tde

SMILES: O=C(c1nccs1)c1cn(C(=O)c2ccccc2)c2ccccc12
- Emax at 4 h [1]: 81.4%
- Activity [6]: Dde

SMILES: Cn1cc(C(=O)c2nccs2)c2ccccc21
- Emax at 4 h [1]: 62.9%
- Activity [6]: Dde

SMILES: CC(=O)n1cc(C(=O)c2nccs2)c2ccccc21
- Emax at 4 h [1]: 106%
- Activity [6]: Dde

SMILES: CNC(=O)c1csc(C(=O)c2c[nH]c3ccccc23)n1
- EC50 [10]: 12000 nM
- IC50 [11]: 32100 nM
- remaining at 12 h, 1 µM [12]: 5%
